The source made the active and inactive calls. The calls are words filed in the database; no cut-off is given here.
Key:
[1] = target: D(3) dopamine receptor (Homo sapiens) (UniProt P35462); experiment: Displacement of [3H]N-methylspiperone from dopamine D3 receptor (unknown origin) assessed as total radioligand binding at 1.66 x 10^-7 M incubated for 60 mins by microbeta plate reader based method
[2] = target: T1, 5-hydroxytryptamine receptor 1A (Homo sapiens) (UniProt P08908); experiment: Agonist activity at human 5-HT1A receptor expressed in HEK293 cells assessed as stimulation of cAMP levels at 1 uM relative to 8-OH-DPAT; assay type: functional, cell-based
T1 sequence (whole entry): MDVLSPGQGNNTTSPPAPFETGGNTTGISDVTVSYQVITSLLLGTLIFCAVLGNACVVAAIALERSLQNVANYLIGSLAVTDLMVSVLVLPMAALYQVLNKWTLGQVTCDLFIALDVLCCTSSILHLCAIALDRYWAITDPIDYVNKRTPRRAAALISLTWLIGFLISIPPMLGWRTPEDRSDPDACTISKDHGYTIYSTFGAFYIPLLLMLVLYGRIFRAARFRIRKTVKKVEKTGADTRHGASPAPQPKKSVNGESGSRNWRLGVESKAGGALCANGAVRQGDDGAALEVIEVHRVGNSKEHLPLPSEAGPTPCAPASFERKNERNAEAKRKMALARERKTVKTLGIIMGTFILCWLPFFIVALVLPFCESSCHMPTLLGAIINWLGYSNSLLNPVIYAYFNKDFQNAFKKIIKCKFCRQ

[3] = target: T2, D(2) dopamine receptor (Homo sapiens, UniProt P14416); experiment: Antagonist activity against human dopamine D2L receptor expressed in HEK293 cells assessed as inhibition of […]-induced cAMP levels at 1 uM; assay type: functional, cell-based
T2 sequence (P14416 whole entry): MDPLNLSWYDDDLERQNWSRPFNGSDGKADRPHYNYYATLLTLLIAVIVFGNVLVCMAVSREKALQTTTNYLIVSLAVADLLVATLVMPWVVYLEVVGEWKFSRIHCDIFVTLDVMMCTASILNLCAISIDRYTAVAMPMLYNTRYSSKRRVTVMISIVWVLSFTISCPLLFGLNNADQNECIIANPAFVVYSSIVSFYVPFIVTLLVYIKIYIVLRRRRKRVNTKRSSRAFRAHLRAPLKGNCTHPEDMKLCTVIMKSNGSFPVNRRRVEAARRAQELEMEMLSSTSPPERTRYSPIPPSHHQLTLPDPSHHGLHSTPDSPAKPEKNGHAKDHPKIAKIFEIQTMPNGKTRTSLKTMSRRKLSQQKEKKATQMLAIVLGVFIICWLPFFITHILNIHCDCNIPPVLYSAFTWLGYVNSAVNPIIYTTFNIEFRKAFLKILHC

[4] = system: Mus musculus; experiment: Antidepressant-like activity in Swiss mouse assessed as reduction in immobility time at 1.25 to 5 mg/kg, ip administered 60 mins before test; assay type: functional, organism-based
[5] = Selectivity index, ratio of Ki for rat hippocampus 5-HT1A receptor to Ki for human recombinant 5-HT7 receptor
[6] = target: T2, D(2) dopamine receptor; experiment: Antagonist activity against human dopamine D2L receptor expressed in HEK293 cells assessed as inhibition of […]-induced cAMP levels at 0.1 uM; assay type: functional, cell-based
[7] = target: T3, 5-hydroxytryptamine receptor 7 (Homo sapiens, UniProt P34969); experiment: Displacement of [3H]LSD from human recombinant 5-HT7 receptor expressed in CHOK1 cells incubated for 60 mins by microbeta plate reader based method; assay type: cell-based, CHO-K1
T3 sequence (P34969 whole entry): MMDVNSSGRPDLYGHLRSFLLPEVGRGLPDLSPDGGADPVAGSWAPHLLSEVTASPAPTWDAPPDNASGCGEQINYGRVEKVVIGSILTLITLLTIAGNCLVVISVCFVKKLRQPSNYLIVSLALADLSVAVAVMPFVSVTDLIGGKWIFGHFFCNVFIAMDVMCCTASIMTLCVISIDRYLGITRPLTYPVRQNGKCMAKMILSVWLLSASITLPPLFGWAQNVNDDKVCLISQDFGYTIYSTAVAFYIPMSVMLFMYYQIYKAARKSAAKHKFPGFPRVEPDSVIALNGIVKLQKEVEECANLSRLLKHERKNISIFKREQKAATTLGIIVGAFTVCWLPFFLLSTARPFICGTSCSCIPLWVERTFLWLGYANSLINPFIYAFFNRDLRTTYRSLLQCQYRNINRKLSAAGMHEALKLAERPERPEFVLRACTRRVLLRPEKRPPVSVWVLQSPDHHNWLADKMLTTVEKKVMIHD

[8] = target: T1, 5-hydroxytryptamine receptor 1A (Homo sapiens); experiment: Agonist activity at human 5-HT1A receptor expressed in HEK293 cells assessed as stimulation of cAMP levels at 0.1 uM relative to 8-OH-DPAT; assay type: functional, cell-based
[9] = target: T2, D(2) dopamine receptor; experiment: Displacement of [3H]N-methylspiperone from human recombinant dopamine D2 receptor expressed in CHOK1 cells incubated for 60 mins by microbeta plate reader based method; assay type: cell-based, CHO-K1
[10] = target: T4, 5-hydroxytryptamine receptor 6 (Homo sapiens, UniProt P50406); experiment: Displacement of [3H]LSD from human recombinant 5-HT6 receptor expressed in HEK293 cells assessed as total radioligand binding at 1.66 x 10^-7 M incubated for 60 mins by microbeta plate reader based method; assay type: cell-based
T4 sequence (P50406 whole entry): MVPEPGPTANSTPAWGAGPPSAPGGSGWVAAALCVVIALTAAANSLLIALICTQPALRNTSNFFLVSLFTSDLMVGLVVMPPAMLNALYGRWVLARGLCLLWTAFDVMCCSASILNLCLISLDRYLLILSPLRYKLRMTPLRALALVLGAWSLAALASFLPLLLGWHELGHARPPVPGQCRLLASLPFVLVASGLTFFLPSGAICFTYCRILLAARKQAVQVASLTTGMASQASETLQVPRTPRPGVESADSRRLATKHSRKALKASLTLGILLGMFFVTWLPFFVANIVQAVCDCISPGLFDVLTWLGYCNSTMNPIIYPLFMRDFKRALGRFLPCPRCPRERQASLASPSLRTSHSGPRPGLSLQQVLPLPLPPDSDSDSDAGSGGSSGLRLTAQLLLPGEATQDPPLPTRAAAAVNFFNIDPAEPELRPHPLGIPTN

[11] = system: Mus musculus; experiment: Toxicity in Swiss mouse assessed as spontaneous locomotor activity at 2.5 to 10 mg/kg, ip; assay type: organism-based; design: dose 2.5-10 mg/kg, route intraperitoneal; settings: in vivo
[12] = target: T3, 5-hydroxytryptamine receptor 7; experiment: Antagonist activity against human 5-HT7 receptor expressed in HEK293 cells assessed as inhibition of 5-HT-induced cAMP levels at 1 uM; assay type: functional, cell-based
[13] = target: T5, 5-hydroxytryptamine receptor 1A (Rattus norvegicus) (UniProt P19327); experiment: Displacement of [3H]8-OH-DPAT from rat hippocampus 5-HT1A receptor assessed as total radioligand binding at 1 uM incubated for 20 mins by microbeta plate reader based method
T5 sequence (whole entry): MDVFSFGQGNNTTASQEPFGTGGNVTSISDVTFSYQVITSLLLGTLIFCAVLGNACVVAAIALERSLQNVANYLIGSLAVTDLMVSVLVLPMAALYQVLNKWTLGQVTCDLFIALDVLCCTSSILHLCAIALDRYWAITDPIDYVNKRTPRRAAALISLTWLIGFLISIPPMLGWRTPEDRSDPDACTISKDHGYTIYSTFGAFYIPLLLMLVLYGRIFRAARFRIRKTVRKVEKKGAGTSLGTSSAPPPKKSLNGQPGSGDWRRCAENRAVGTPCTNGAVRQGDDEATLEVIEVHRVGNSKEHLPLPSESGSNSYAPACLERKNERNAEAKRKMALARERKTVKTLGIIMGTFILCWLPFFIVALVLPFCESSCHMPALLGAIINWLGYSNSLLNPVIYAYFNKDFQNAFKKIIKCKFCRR

[14] = target: D(3) dopamine receptor (Homo sapiens) (UniProt P35462); experiment: Displacement of [3H]N-methylspiperone from dopamine D3 receptor (unknown origin) assessed as total radioligand binding at 1 uM incubated for 60 mins by microbeta plate reader based method
[15] = target: T6, 5-hydroxytryptamine receptor 1A (Rattus norvegicus, UniProt P19327); experiment: Displacement of [3H]8-OH-DPAT from rat hippocampus 5-HT1A receptor incubated for 20 mins by microbeta plate reader based method
T6 sequence (P19327 whole entry): T5 sequence (whole entry)

[16] = target: T4, 5-hydroxytryptamine receptor 6; experiment: Displacement of [3H]LSD from human recombinant 5-HT6 receptor expressed in HEK293 cells assessed as total radioligand binding at 1 uM incubated for 60 mins by microbeta plate reader based method; assay type: cell-based
[17] = target: T2, D(2) dopamine receptor; experiment: Agonist activity at human D2L receptor expressed in HEK293 cells assessed as stimulation of cAMP levels at 1 uM relative to dopamine; assay type: functional, cell-based
[18] = target: T3, 5-hydroxytryptamine receptor 7; experiment: Agonist activity at human 5-HT7 receptor expressed in HEK293 cells assessed as stimulation of cAMP levels at 1 uM relative to 5HT; assay type: functional, cell-based
[19] = target: T5, 5-hydroxytryptamine receptor 1A (Rattus norvegicus); experiment: Displacement of [3H]8-OH-DPAT from rat hippocampus 5-HT1A receptor assessed as total radioligand binding at 1.66 x 10^-7 M incubated for 20 mins by microbeta plate reader based method
[20] = system: Mus musculus; experiment: Anxiolytic-like activity in Swiss mouse assessed as increase in number of punished crossings measured during 60 seconds period at 2.5 to 10 mg/kg, ip by four-plate test; assay type: functional, organism-based
[21] = target: T3, 5-hydroxytryptamine receptor 7; experiment: Antagonist activity against human 5-HT7 receptor expressed in HEK293 cells assessed as inhibition of 5-HT-induced cAMP levels at 0.1 uM; assay type: functional, cell-based
[22] = target: T1, 5-hydroxytryptamine receptor 1A (Homo sapiens); experiment: Antagonist activity against human 5-HT1A receptor expressed in HEK293 cells assessed as inhibition of […]-induced cAMP levels at 0.1 uM; assay type: functional, cell-based
[23] = system: Mus musculus; experiment: Anxiolytic-like activity in Swiss mouse assessed as increase in number of punished crossings measured during 60 seconds period at 5 mg/kg, ip by four-plate test; assay type: functional; settings: route intraperitoneal
[24] = target: T2, D(2) dopamine receptor; experiment: Agonist activity at human D2L receptor expressed in HEK293 cells assessed as stimulation of cAMP levels at 0.1 uM relative to dopamine; assay type: functional, cell-based
[25] = target: T1, 5-hydroxytryptamine receptor 1A (Homo sapiens); experiment: Antagonist activity against human 5-HT1A receptor expressed in HEK293 cells assessed as inhibition of […]-induced cAMP levels at 1 uM; assay type: functional, cell-based
[26] = target: T3, 5-hydroxytryptamine receptor 7; experiment: Agonist activity at human 5-HT7 receptor expressed in HEK293 cells assessed as stimulation of cAMP levels at 0.1 uM relative to 5HT; assay type: functional, cell-based
[27] = system: Mus musculus; experiment: Antidepressant-like activity in Swiss mouse assessed as reduction in immobility time at 10 mg/kg, ip administered 60 mins before test; assay type: functional; design: scale not given: the % may be the effect or the level left; settings: route intraperitoneal
[28] = system: Mus musculus; experiment: Anxiolytic-like activity in Swiss mouse assessed as increase in number of punished crossings measured during 60 seconds period at 0.625 to 10 mg/kg, ip by four-plate test; assay type: functional, organism-based
[29] = target: T4, 5-hydroxytryptamine receptor 6; experiment: Displacement of [3H]LSD from human recombinant 5-HT6 receptor expressed in HEK293 cells incubated for 60 mins by microbeta plate reader based method; assay type: cell-based
[30] = system: Mus musculus; experiment: Antidepressant-like activity in Swiss mouse assessed as reduction in immobility time at 2.5 to 10 mg/kg, ip administered 60 mins before test; assay type: functional, organism-based
[31] = system: Mus musculus; experiment: Anxiolytic-like activity in Swiss mouse assessed as increase in number of punished crossings measured during 60 seconds period at 2.5 mg/kg, ip by four-plate test; assay type: functional; settings: route intraperitoneal
[32] = system: Mus musculus; experiment: Toxicity in Swiss mouse assessed as spontaneous locomotor activity at 0.625 to 10 mg/kg, ip; assay type: organism-based; design: dose 0.625-10 mg/kg, route intraperitoneal; settings: in vivo
[33] = system: Mus musculus; experiment: Toxicity in Swiss mouse assessed as spontaneous locomotor activity at 2.5 to 10 mg/kg, ip measured during 2 to 6 mins; assay type: organism-based; design: route intraperitoneal; settings: in vivo
[34] = system: Mus musculus; experiment: Anxiolytic-like activity in Swiss mouse assessed as increase in number of punished crossings measured during 60 seconds period at 25 mg/kg, ip by four-plate test; assay type: functional; settings: route intraperitoneal
[35] = system: Mus musculus; experiment: Antidepressant-like activity in Swiss mouse assessed as reduction in immobility time at 5 mg/kg, ip administered 60 mins before test; assay type: functional; design: scale not given: the % may be the effect or the level left; settings: route intraperitoneal

Chain of D(3) dopamine receptor (Homo sapiens) (P35462 whole entry): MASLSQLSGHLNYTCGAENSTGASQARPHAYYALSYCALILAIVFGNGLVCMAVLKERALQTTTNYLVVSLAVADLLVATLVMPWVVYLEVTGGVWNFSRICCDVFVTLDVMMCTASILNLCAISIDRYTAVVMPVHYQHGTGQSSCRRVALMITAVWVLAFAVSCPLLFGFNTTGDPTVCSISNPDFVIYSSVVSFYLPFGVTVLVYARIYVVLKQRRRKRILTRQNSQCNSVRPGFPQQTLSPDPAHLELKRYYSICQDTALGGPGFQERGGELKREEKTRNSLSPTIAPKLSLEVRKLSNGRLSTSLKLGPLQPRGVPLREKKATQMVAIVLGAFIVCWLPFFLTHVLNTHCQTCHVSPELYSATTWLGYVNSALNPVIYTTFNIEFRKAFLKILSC

SMILES | Activity [1] | Activity [2] | inhibition [3] | Ratio Ki [5] | inhibition [6] | Ki [7] | Activity [8] | Ki [9] | Activity [10] | Activity [11] | Activity [13] | Activity [14] | Ki [15] | Activity [16] | Activity [17] | Activity [19] | Activity [20] | inhibition [22] | Activity [24] | inhibition [25] | also measured
Cn1c(=O)c2c(nc3n(CCCCCN4CCN(c5ccccc5O)CC4)c(-c4ccccc4)cn23)n(C)c1=O | 81% | 32.5% | 71.2% | 0.2 | 12.2% | 43 nM | 22.9% | 24 nM | 87% | Non-toxic | 9% | 39% | 9 nM | 60% | 7.7% | 47% | Active | 68.3% | 12.3% | 91.8% | Activity [4]: inactive; inhibition [12]: 58.9%; Activity [18]: 5.3%; inhibition [21]: 11%; Activity [23]: 90%; Activity [26]: 5.1%
Cc1cccc(N2CCN(CCCCn3c(C)cn4c5c(=O)n(C)c(=O)n(C)c5nc34)CC2)c1C | 43% | 61.5% | 73.8% |  | 38.4% | 381 nM | 55.7% | 27 nM | 81% |  | 42% | 34% | < 1 nM | 68% | 37.6% | 75% |  | 102% | 35.3% | 105% | Activity [27]: 20%; Activity [28]: Active; Ki [29]: 510 nM; Activity [30]: Active; Activity [31]: 67%; Activity [32]: Non-toxic; Activity [33]: Non-toxic
Cc1cn2c3c(=O)n(C)c(=O)n(C)c3nc2n1CCCCCN1CCN(c2ccc(Cl)c(Cl)c2)CC1 |  | 18.7% | 55.9% | 0.19 | 20.9% | 111 nM | 2.3% | 59 nM |  | Non-toxic |  |  | 22 nM |  | 10% |  | Active | 92.9% | 0.8% | 87.6% | Activity [34]: 124%; Ki [29]: 405 nM; Activity [30]: Active; Activity [33]: Non-toxic; Activity [35]: 25%
